Legend:
Human CARM1 (PRMT4) = target: T1, Human CARM1 (PRMT4) (Homo sapiens, UniProt Q86X55); experiment: CARM1 biochemical assay (3H-SAM Flashplate, peptide substrate); settings: read-out: CARM1_ IC50
T1 construct: Flag-CARM1-His; made in house; host or cells: HEK 293F cells (BacMam baculovirus, pFastBacMam)
T1 sequence (Q86X55 2-585 isoform Q86X55-1): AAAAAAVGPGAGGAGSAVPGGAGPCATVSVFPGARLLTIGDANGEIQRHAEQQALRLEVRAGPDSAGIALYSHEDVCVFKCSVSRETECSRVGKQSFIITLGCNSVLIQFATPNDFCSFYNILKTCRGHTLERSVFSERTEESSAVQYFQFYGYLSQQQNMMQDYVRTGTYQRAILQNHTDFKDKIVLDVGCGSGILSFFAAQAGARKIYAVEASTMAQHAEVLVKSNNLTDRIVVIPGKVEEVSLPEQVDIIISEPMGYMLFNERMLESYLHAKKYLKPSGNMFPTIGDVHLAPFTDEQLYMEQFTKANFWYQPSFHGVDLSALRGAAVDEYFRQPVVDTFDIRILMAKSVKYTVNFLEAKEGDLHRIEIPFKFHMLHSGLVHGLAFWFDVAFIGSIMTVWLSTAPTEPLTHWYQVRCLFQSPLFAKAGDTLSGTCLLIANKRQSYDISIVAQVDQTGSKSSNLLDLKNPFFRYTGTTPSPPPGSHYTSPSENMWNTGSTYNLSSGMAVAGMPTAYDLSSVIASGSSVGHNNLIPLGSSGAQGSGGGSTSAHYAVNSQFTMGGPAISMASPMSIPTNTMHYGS
Outline: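 FLAG/His-tagged human CARM1 (isoform 1, Δ539-561, baculovirus-expressed), 0.25 nM, preincubated 30 min at room temperature with compound (2% DMSO) in 20 mM Bicine pH 7.6, then reacted with 30 nM 3H-SAM and 250 nM biotinylated H3 16-30 peptide (R26 monomethyl). Stopped with 300 uM cold SAM; labelled peptide captured on streptavidin Flashplate; % inhibition versus DMSO and 1 mM SAH controls fitted to a 4- or 3-parameter curve.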

PRMT5 = PRMT5 (Homo sapiens, UniProt O14744); experiment: PRMT5 IC50 (Table 2; no method described); type: biochemical; settings: read-out: PRMT5_ IC50
Chain of PRMT5 (O14744 whole entry, species assumed): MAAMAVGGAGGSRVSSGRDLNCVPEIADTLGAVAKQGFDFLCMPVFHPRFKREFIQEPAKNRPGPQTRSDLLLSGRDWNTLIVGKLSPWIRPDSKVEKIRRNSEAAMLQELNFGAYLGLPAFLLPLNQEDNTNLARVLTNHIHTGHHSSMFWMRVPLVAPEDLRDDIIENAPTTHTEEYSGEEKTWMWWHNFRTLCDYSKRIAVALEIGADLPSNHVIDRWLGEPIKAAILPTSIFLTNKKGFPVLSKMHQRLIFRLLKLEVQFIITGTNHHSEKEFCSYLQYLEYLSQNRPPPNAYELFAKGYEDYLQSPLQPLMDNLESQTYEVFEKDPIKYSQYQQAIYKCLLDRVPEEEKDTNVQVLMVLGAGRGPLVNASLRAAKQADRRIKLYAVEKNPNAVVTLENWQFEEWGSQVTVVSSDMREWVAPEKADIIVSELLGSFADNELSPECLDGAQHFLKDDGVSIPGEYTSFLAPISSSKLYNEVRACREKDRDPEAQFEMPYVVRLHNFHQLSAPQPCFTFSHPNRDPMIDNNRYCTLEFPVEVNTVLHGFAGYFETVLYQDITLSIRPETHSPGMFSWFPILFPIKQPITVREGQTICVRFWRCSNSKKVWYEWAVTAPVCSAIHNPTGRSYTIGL
Chain of PRMT5 (Q9BQA1 whole entry partner, species assumed): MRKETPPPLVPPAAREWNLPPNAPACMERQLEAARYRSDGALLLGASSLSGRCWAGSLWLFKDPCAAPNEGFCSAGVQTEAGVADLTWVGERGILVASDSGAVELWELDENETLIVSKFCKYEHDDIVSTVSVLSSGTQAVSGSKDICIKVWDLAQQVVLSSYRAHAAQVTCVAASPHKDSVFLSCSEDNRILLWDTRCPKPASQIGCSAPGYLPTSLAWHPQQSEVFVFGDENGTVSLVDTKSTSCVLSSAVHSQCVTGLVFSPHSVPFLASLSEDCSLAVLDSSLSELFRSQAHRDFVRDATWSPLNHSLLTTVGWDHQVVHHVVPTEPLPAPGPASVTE

[1] = test system: asymmetric di-methyl PABP1 in RKO cells; experiment: In Cell Western (ICW) for asymmetric di-methyl PABP1 and DNA content in RKO cells; type: cell-based; settings: Homo sapiens, RKO, In Cell Western
Outline: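 RKO cells treated with compound for 48 h at 37 °C, then fixed, methanol-permeabilized and stained for asymmetric di-methyl PABP1 (800 nm) with DRAQ5 DNA stain (700 nm). Signal ratio normalized to DMSO and 20 μM reference-compound controls. IC50 from nine 3-fold dilutions in triplicate.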

| SMILES | IC50 (Human CARM1 (PRMT4)) [µM] | IC50 (PRMT5) [µM] | IC50 [1] [µM] |
| --- | --- | --- | --- |
| CC(=O)N1CCC(Cn2cnc3ccc(-c4ccc(CNCCN)cc4)cc32)CC1 [Compound 352] | – | 0.325 | – |
| CC(C)(C)C(=O)Cn1cnc2cc(-c3ccc(CNCCN)cc3)ccc21 [Compound 354] | – | 0.452 | – |
| CN1CCN(C(=O)c2cccc(Cn3cnc4ccc(-c5ccc(CNCCN)cc5)cc43)c2)CC1 [Compound 329] | 2.48 | 0.136 | – |
| NCCNCc1ccc(-c2ccc3ncn(Cc4cccc(C(=O)NC5CCCC5)c4)c3c2)cc1 [Compound 332] | 2.84 | 0.0859 | – |
| NCCNCc1ccc(-c2ccc3cnn(Cc4cccc(C(=O)N5CCCC5)c4)c3c2)cc1 [Compound 324] | 0.887 | 0.0973 | – |
| NCCNCc1ccc(-c2ccc3ncn(Cc4cccc(C(=O)N5CCCC5)c4)c3c2)cc1 [Compound 323] | 0.756 | 0.127 | – |
| CN(CCc1ccccn1)C(=O)c1cncc(-c2ccc(CNCCN)cc2)c1 [Compound 357] | – | 0.393 | – |
| CS(=O)(=O)c1ccc(Cn2cnc3ccc(-c4ccc(CNCCN)cc4)cc32)cc1 [Compound 340] | 5.94 | 0.105 | – |
| NCCNCc1ccc(-c2ccc3ncn(Cc4cccc(C(=O)NC5CCCc6ccccc65)c4)c3c2)cc1 (stereo not drawn) [Compound 325] | 1.03 | 0.0253 | – |
| N#Cc1ccc(Cn2cnc3ccc(-c4ccc(CNCCN)cc4)cc32)cc1 [Compound 344] | 8.96 | 0.0676 | – |
| CC(=O)N1CCC(Cn2ncc3ccc(-c4ccc(CNCCN)cc4)cc32)CC1 [Compound 353] | – | 0.351 | – |
| NCCNCc1ccc(-c2ccc3ncn(Cc4cccc(C(=O)NC5CCCCC5)c4)c3c2)cc1 [Compound 327] | 1.6 | 0.0728 | – |
| NCCNCc1ccc(-c2ccc3ncn(Cc4cccc(C(=O)NC5CC5)c4)c3c2)cc1 [Compound 342] | 6.48 | 0.11 | – |
| NCCNCc1ccc(-c2ccc3cnn(CC4CCNCC4)c3c2)cc1 [Compound 348] | 10 | 0.435 | – |
| CN(C(=O)c1cccc(Cn2cnc3ccc(-c4ccc(CNCCN)cc4)cc32)c1)C1CCCC1 [Compound 346] | 10 | 0.116 | – |
| NCCNCc1ccc(-c2ccc3cnn(Cc4cccc(C(=O)N5CCOCC5)c4)c3c2)cc1 [Compound 349] | – | 0.117 | – |
| CN1CCN(CCNC(=O)c2cccc(Cn3cnc4ccc(-c5ccc(CNCCN)cc5)cc43)c2)CC1 [Compound 333] | 3.06 | 0.0947 | – |
| CN1CCCC(Cn2cnc3ccc(-c4ccc(CNCCN)cc4)cc32)C1 (stereo not drawn) [Compound 338] | 5.53 | 0.439 | – |
| COCCNC(=O)c1cccc(Cn2cnc3ccc(-c4ccc(CNCCN)cc4)cc32)c1 [Compound 345] | 9.39 | 0.114 | – |
| NCCNCc1ccc(-c2ccc3cnn(Cc4cccc(Oc5ccccc5)c4)c3c2)cc1 [Compound 334] | 3.13 | 0.467 | – |
| NCCNCc1ccc(-c2ccc3cnn(Cc4ccncc4)c3c2)cc1 [Compound 350] | – | 0.172 | – |
| CN1CCN(C(=O)c2cccc(Cn3ncc4ccc(-c5ccc(CNCCN)cc5)cc43)c2)CC1 [Compound 335] | 3.51 | 0.0738 | – |
| Cc1cc(C)c(CN2Cc3ccc(-c4ccc(CNCCN)cc4)cc3C2=O)c(=O)[nH]1 [Compound 390] | 17.5 | 0.472 | – |
| CN(CCN)Cc1cccc(-c2nc(NC3CCOCC3)c3cnn(C4CC4)c3n2)c1 [Compound 174] | 0.00611 | – | 5.04 |
| Cc1c(N(C)CC2CC2)cc(-c2cccc(CN(C)CCN)c2)cc1N1CCOCC1 [Compound 241] | 0.051 | – | 5.69 |
| NCCNCc1ccc(-c2ccc3cnn(C4CCNCC4)c3c2)cc1 [Compound 351] | – | 0.235 | – |

Next, values leading:

| IC50 (Human CARM1 (PRMT4)) [µM] | IC50 (PRMT5) [µM] | IC50 [1] [µM] | SMILES |
| --- | --- | --- | --- |
| 0.235 | 13.3 | – | CNCCN(C)Cc1cccc(-c2cc(C(=O)N[C@@H](C)c3ccccc3)c3cnn(-c4ccccn4)c3n2)c1 [Compound 303] |
| 0.0591 | 47.3 | – | CC(C)n1ncc2c(C(=O)NCc3cccc(F)c3)cc(-c3cccc(CN(C)CCN)c3)nc21 [Compound 251] |
| 0.0531 | 2.83 | – | CNCCN(C)Cc1cccc(-c2cc(C(=O)N(C)Cc3cccc(F)c3)c3cnn(C(C)C)c3n2)c1 [Compound 244] |
| 0.0583 | 0.816 | – | CC(C)n1ncc2c(C(=O)N(C)Cc3ccccc3F)cc(-c3cccc(CN(C)CCN)c3)nc21 [Compound 250] |
| 6.08 | 0.0873 | – | CN(C)C(=O)c1cccc(Cn2cnc3ccc(-c4ccc(CNCCN)cc4)cc32)c1 [Compound 341] |
| 0.0543 | 0.577 | – | CNCCN(C)Cc1cccc(-c2cc(C(=O)N(C)C(C)c3ccccc3)c3cnn(C(C)C)c3n2)c1 (stereo not drawn) [Compound 246] |
| 0.0519 | 0.235 | – | CC(C)n1ncc2c(C(=O)N(C)Cc3ccccc3Cl)cc(-c3cccc(CN(C)CCN)c3)nc21 [Compound 242] |
| 0.153 | 4.17 | – | CC(C)n1ncc2c(C(=O)N(C)Cc3cccc(F)c3)cc(-c3cccc(CN(C)CCN)c3)nc21 [Compound 287] |
| 0.0749 | 1.79 | – | CC(C)n1ncc2c(C(=O)N(C)Cc3cccc(Cl)c3)cc(-c3cccc(CN(C)CCN)c3)nc21 [Compound 266] |
| 0.0135 | 0.79 | – | CC(C)n1ncc2c(C(=O)N(C)[C@@H](C)c3ccccc3)cc(-c3cccc(CN(C)CCN)c3)nc21 [Compound 193] |
| 0.0481 | 1.48 | – | CNCCN(C)Cc1cccc(-c2cc(C(=O)N(C)Cc3cccc(Cl)c3)c3cnn(C(C)C)c3n2)c1 [Compound 237] |
| 0.239 | 0.67 | – | CNCCN(C)Cc1cccc(-c2cc(C(=O)N(C)Cc3ccccc3F)c3cnn(C(C)C)c3n2)c1 [Compound 304] |
| 0.11 | 8.73 | – | CNCCN(C)Cc1cccc(-c2cc(C(=O)N(C)Cc3ccc(F)cc3)c3cnn(C(C)C)c3n2)c1 [Compound 278] |
| 0.113 | – | 9.49 | CNCCN(C)Cc1cccc(-c2cc(C(=O)NCc3cncn3C)c3cnn(C(C)C)c3n2)c1 [Compound 280] |
| 0.0536 | – | 20 | CN(CCN)Cc1cccc(-c2ccc(C(=O)NC3CCOCC3)c(N(C)CC3CC3)c2)c1 [Compound 245] |
| 0.00593 | – | 3.31 | CCOC(=O)Nc1cc(-c2cccc(CN(C)CCN)c2)nc2c1cnn2C(C)C [Compound 173] |
| 0.0893 | – | 20 | COC1CCN(C(=O)c2cc(-c3cccc(CN(C)CCN)c3)nc3c2cnn3C(C)C)C1 (stereo not drawn) [Compound 274] |
| 0.0702 | – | 10.2 | CC(C)n1ncc2c(C(=O)NCc3cn(C)cn3)cc(-c3cccc(CN(C)CCN)c3)nc21 [Compound 262] |
| 0.0124 | – | 1.89 | CC(C)n1ncc2c(C(=O)NCc3nccs3)cc(-c3cccc(CN(C)CCN)c3)nc21 [Compound 189] |
| 0.0217 | – | 20 | CNCCN(C)Cc1cccc(-c2cc(-c3ccco3)c3cnn(C(C)C)c3n2)c1 [Compound 209] |
| 0.0547 | – | 20 | CNCCN(C)Cc1cccc(-c2cc(-c3ccc(O)cc3)c3cnn(C(C)C)c3n2)c1 [Compound 247] |
| 0.163 | – | 16.9 | CNCCN(C)Cc1cccc(-c2cc(C(=O)NCC3CCOCC3)c3cnn(C)c3n2)c1 [Compound 289] |
| 0.0291 | – | 2.24 | CC(C)n1ncc2c(C(=O)NCc3nccn3C)cc(-c3cccc(CN(C)CCN)c3)nc21 [Compound 215] |
| 0.0618 | – | 5.52 | CCN(Cc1cccnc1)C(=O)c1cc(-c2cccc(CN(C)CCNC)c2)nc2c1cnn2C(C)C [Compound 254] |
| 0.0151 | – | 20 | CC(C)n1ncc2c(-c3ccco3)cc(-c3cccc(CN(C)CCN)c3)nc21 [Compound 198] |
| 0.012 | – | 6.09 | CNCCN(C)Cc1cccc(-c2cc(OC3CCOCC3)c3cnn(C(C)C)c3n2)c1 [Compound 187] |
| 0.067 | – | 20 | CNCCN(C)Cc1cccc(-c2cc(C(=O)NCc3cccc(F)c3)c3cnn(C(C)C)c3n2)c1 [Compound 259] |
| 0.183 | – | 15.7 | CNCCN(C)Cc1cccc(-c2cc(C(=O)N3CCN(C)C(=O)C3)c3cnn(C(C)C)c3n2)c1 [Compound 296] |
| 0.015 | – | 1.66 | CC(C)n1ncc2c(C(=O)NCc3cccc4ccnn34)cc(-c3cccc(CN(C)CCN)c3)nc21 [Compound 197] |
| 0.0206 | – | 1.64 | CNCCN(C)Cc1cccc(-c2cc(C(=O)NCc3nccs3)c3cnn(C(C)C)c3n2)c1 [Compound 207] |

Source: patent US20170280720A1, “ARGININE […] INHIBITORS AND USES THEREOF” (EPIZYME, INC., priority 2014, published 2017)
